ChEMBL document CHEMBL4480449, “Conolodinines A-D, Aspidosperma- Aspidosperma Bisindole Alkaloids with Antiproliferative Activity from Tabernaemontana corymbosa” (J Nat Prod, 2019)
pIC50: −log10 of the molar value.

Tests used:
[1] = Cytotoxicity against human KB/S cells after 72 hrs by MTT assay; format: functional, cell-based
KB/VJ300 [2] = assay: Cytotoxicity against human KB/VJ300 cells after 72 hrs by MTT assay; format: functional, cell-based
KB/VJ300 [3] = assay: Cytotoxicity against human KB/VJ300 cells after 72 hrs in presence of vincristine by MTT assay; format: functional, cell-based; also: test concentration or dose not given here
PC-3 = assay: Cytotoxicity against human PC3 cells after 72 hrs by MTT assay; format: functional, cell-based
LNCaP = assay: Cytotoxicity against human LNCAP cells after 72 hrs by MTT assay; format: functional, cell-based
MCF7 = assay: Cytotoxicity against human MCF7 cells after 72 hrs by MTT assay; format: functional, cell-based
MDA-MB-231 = assay: Cytotoxicity against human MDA-MB-231 cells after 72 hrs by MTT assay; format: functional, cell-based
A549 = assay: Cytotoxicity against human A549 cells after 72 hrs by MTT assay; format: functional, cell-based; conditions: A549, 72 h
HCT-116 = assay: Cytotoxicity against human HCT116 cells after 72 hrs by MTT assay; format: functional, cell-based; conditions: HCT-116, 72 h
HT-29 = assay: Cytotoxicity against human HT-29 cells after 72 hrs by MTT assay; format: functional, cell-based
MRC5 = assay: Cytotoxicity against human MRC5 cells after 72 hrs by MTT assay; format: cell-based

| Compound | pIC50 ([1]; Homo sapiens, 72 h) | pIC50 (KB/VJ300 [2]; Homo sapiens, KB/VJ300, 72 h) | pIC50 (KB/VJ300 [3]; Homo sapiens, KB/VJ300, 72 h) | pIC50 (PC-3; Homo sapiens, PC-3, 72 h) | pIC50 (LNCaP; Homo sapiens, LNCaP, 72 h) | pIC50 (MCF7; Homo sapiens, MCF7, 72 h) | pIC50 (MDA-MB-231; Homo sapiens, MDA-MB-231, 72 h) | pIC50 (A549) | pIC50 (HCT-116) | pIC50 (HT-29; Homo sapiens, HT-29, 72 h) | pIC50 (MRC5; Homo sapiens, MRC5, 72 h) | pIC50 [1] | pIC50 (MRC5; mrc5) | pIC50 (KB/VJ300 [2]; kb/vj300) | pIC50 (KB/VJ300 [3]; kb/vj300) | pIC50 (PC-3; pc-3) | pIC50 (LNCaP; lncap) | pIC50 (MCF7; mcf7) | pIC50 (MDA-MB-231; mda-mb-231) | pIC50 (HT-29; ht-29) |
| --- | --- | --- | --- | --- | --- | --- | --- | --- | --- | --- | --- | --- | --- | --- | --- | --- | --- | --- | --- | --- |
| CC[C@@]12CC(C(=O)OC)=C3N=C4C(=CC(=O)C(OC)=C4OC)[C@@]34CCN([C@@H]3c5cc6c(cc5O[C@@H]3[C@H]1O)NC1=C(C(=O)OC)C[C@]3(CC)[C@H](O)[C@@H](O)CN5CC[C@@]16[C@@H]53)[C@H]42 | 6.70 | < 5.00 | < 5.00 | < 5.00 | 5.59 | 5.46 | 5.27 | < 5.00 | 5.51 | 5.64 | < 5.00 |  |  |  |  |  |  |  |  |  |
| CC[C@@]12C=C(C(=O)OC)C3=Nc4c(cc(O)c(OC)c4OC)[C@@]34CCN([C@@H]3c5cc6c(cc5O[C@@H]3[C@H]1O)NC1=C(C(=O)OC)C[C@]3(CC)[C@@H]5O[C@@H]5CN5CC[C@@]16[C@@H]53)[C@@H]24 | 5.96 | < 5.00 | 5.39 | 5.33 | < 5.00 | 5.32 | 5.44 | < 5.00 | 5.37 | 5.66 |  |  |  |  |  |  |  |  |  |  |
| CC[C@@]12CC(C(=O)OC)=C3N=C4C(=CC(=O)C(O)=C4OC)[C@@]34CCN([C@@H]3c5cc6c(cc5O[C@@H]3[C@H]1O)NC1=C(C(=O)OC)C[C@]3(CC)[C@@H]5O[C@@H]5CN5CC[C@@]16[C@@H]53)[C@H]42 (stereo in doubt; 7) |  | 5.38 | 5.52 | 6.22 | 5.80 | 6.10 | 5.89 | < 5.00 | 6.30 | 6.10 |  | 7.52 | 5.82 |  |  |  |  |  |  |  |
| CC[C@@]12CC(C(=O)OC)=C3N=C4C(=CC(=O)C(O)=C4OC)[C@@]34CCN([C@@H]3c5cc6c(cc5O[C@@H]3[C@H]1O)NC1=C(C(=O)OC)C[C@]3(CC)[C@@H]5O[C@@H]5CN5CC[C@@]16[C@@H]53)[C@H]42 (stereo in doubt; 8) |  |  |  |  |  |  |  |  |  |  |  | 8.00 | 5.40 | 5.54 | 5.38 | 6.30 | 6.00 | 6.15 | 6.10 | 6.00 |
| CC[C@@]12CC[C@@H]3N(C)c4ccc([C@@H]5[C@H]6O[C@H]6[C@@]6(CC)CC(C(=O)OC)=C7Nc8c(cc(O)c(OC)c8OC)[C@@]78CCN5[C@@H]68)cc4[C@@]34CCN(C[C@H]3O[C@H]31)[C@@H]24 [CONOFOLINE] | < 5.00 | < 5.00 |  | 5.64 | < 5.00 | < 5.00 | 5.00 | 5.09 | 5.18 | 5.07 |  |  |  |  |  |  |  |  |  |  |
| CC[C@@]12CC(C(=O)OC)=C3Nc4cc5c(cc4[C@@]34CCN(C[C@H]3O[C@H]31)[C@@H]24)[C@@H]1[C@H](O5)[C@@H](O)[C@@]2(CC)CC(C(=O)OC)=C3Nc4c(cc(O)c(OC)c4OC)[C@@]34CCN1[C@@H]24 [CONOPHYLLINE] | 7.52 | < 5.00 | 5.31 | 6.52 | < 5.00 | 5.68 | 5.80 | 5.49 | 6.10 | 5.52 |  |  |  |  |  |  |  |  |  |  |
| COc1ccc(CCN(C)CCCC(C#N)(c2ccc(OC)c(OC)c2)C(C)C)cc1OC (stereo not drawn) [VERAPAMIL] |  |  | 6.10 |  |  |  |  |  |  |  |  |  |  |  |  |  |  |  |  |  |
| CC[C@]1(O)C[C@H]2CN(CCc3c([nH]c4ccccc34)[C@@](C(=O)OC)(c3cc4c(cc3OC)N(C=O)[C@H]3[C@@](O)(C(=O)OC)[C@H](OC(C)=O)[C@]5(CC)C=CCN6CC[C@]43[C@@H]65)C2)C1 [VINCRISTINE] | 9.40 | 5.59 |  |  |  |  |  |  |  |  |  |  |  |  |  |  |  |  |  |  |
